Here are results for 1 compound from patent publication US6121512A, “Cytochrome P-450 constructs and method of producing herbicide-resistant transgenic plants” (North Carolina State University, priority 1997, dated 2000).

The subject of data set [1] is wild-type SR1 plants and pBI121-transformed control tobacco plants. Briefly: Herbicide tolerance, seeds germinated on herbicide medium, control tobacco. It counts as in vivo, Nicotiana tabacum cv SR1. The settings on record: 1.0 μM chlortoluron in medium. As to the method: (§1) T1 generation seeds from CYP71A10-transformed tobacco and pBI121-transformed control plants were placed onto Petri dishes containing MS salts and linuron (using its commercial formulation LOROX 50 DF) at active ingredient concentrations ranging from 0.25 to 3.0 μM. Chlortoluron was added at 0, 1.0, 5.0 and 10.0 μM concentrations using a 99.5% pure analytical standard. The Petri dishes were incubated in a growth chamber maintaining a constant temperature of 27° C. and a 16/8 hour light/dark cycle. The phytotoxic effects of the treatments were determined visually by comparison to control plants and plants grown in the absence of the herbicide. All treatments were repeated at least twice.

Data set [2] has as its target T1, CYP73A1 (trans-cinnamic acid hydroxylase) (Helianthus tuberosus, UniProt Q04468).
T1 construct: host or cells: yeast
T1 sequence (Q04468 1-505): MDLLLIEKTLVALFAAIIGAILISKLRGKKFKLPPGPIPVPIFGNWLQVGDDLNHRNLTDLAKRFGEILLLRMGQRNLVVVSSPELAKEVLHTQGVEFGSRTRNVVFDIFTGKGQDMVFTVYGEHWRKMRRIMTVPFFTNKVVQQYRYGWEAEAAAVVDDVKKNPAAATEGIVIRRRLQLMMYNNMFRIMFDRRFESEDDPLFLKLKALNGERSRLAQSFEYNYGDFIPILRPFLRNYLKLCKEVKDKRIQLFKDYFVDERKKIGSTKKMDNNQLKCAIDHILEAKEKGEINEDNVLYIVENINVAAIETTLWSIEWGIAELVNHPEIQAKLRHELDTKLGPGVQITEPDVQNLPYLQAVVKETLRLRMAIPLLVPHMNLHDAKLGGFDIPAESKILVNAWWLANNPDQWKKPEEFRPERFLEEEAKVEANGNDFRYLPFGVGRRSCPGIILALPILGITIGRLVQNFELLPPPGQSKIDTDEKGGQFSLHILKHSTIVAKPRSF
The conditions noted are these: CYP73A1 expressed in yeast, chlortoluron ring-methyl hydroxylation; cited from earlier work.

The test system of data set [3] is CYP71A10-transformed tobacco. Briefly: Herbicide tolerance, seeds germinated on herbicide medium, CYP71A10-transformed tobacco. The conditions noted are these: 1.0 μM chlortoluron in medium. It counts as in vivo, Nicotiana tabacum cv SR1. As to the method:
as §1

Data set [4] has as its system excised leaves of control tobacco plants transformed with pBI121. The data set can be described thus: In vivo herbicide metabolism assay, excised leaves of control tobacco. Also on record: species or system Nicotiana tabacum cv SR1. The conditions noted are these: after 14 hours; 1.2 nmol herbicide; standard error in parentheses; three pBI121 control plants. The protocol: Seeds from primary transgenic tobacco plants transformed with CYP71A10 and control plants transformed with the pBI121 vector were grown in Petri dishes containing MS salts and 100 μg/ml kanamycin. At five weeks post-seeding, kanamycin-resistant plantlets were transplanted into pots containing soil and grown an additional two weeks. Single leaves of approximately 10 cm^2 in size were excised and their petioles inserted into 100 μl of H2 O containing radiolabeled herbicide. The leaves were placed in a growth chamber maintaining a temperature of 27° C. and incubated until the entire volume of the herbicide solution was drawn up by the transpirational stream of the leaves (about 3 hrs). The leaves were subsequently transferred into an Eppendorf tube containing distilled water and further incubated for a total of 14 hours.
[^14 C]-labeled herbicide was extracted from the leaves by grinding for 5 minutes in 250 μl methanol with a plastic pellet pestle driven by an electric drill. After centrifugation for 3 minutes at 14,000 g, 75μl of the supernatant was spotted on a Whatman K6F silica plate and developed in a solvent system containing chloroforn/ethanol/acetic acid 135:10:15 (v/v/v). The separated herbicide derivatives were visualized using an imaging scanner. Substrate conversion was quantified based on the amount of herbicide absorbed, and the ratios of the parent compound and the produced metabolites determined from the TLC profiles.

For `Cc1ccc(NC(=O)N(C)C)cc1Cl` [Chlortoluron, chlortoluron], in data set [1], the “growth of the control plants” value is reported as “completely arrested”. Moreover, the “turnover number of the heterologously expressed enzyme” value in data set [2] is given as 0.014 /min. The “growth of the 25/2 plants” value in data set [3] is listed as “modestly inhibited”. Moreover, in data set [4], the “% of herbicide metabolized, Control” value is 39 (7.5) %.
